Measured values: patent US7767717B2 (priority 2003, dated 2010)
Like-named read-outs stand apart in the source and are kept apart here. One block for each molecule: values may come before it.

Key:
[1] = cutaneous [^3H]-4-hydroxy tamoxifen delivery in breast cancer patients: radioactivity in breast tissue, blood, urine; details: for share of radioactivity in blood: 24 hours after cutaneous 4-hydroxy tamoxifen
Method: (§1) The patients received [^3H]-labeled drug applied directly on the affected breasts at specified intervals ranging from 12 hours to 7 days before surgery to excise diseased tissue. Breast tissue from three regions: the tumor, tissue immediately surrounding the tumor, and normal tissue, was excised and immediately frozen in liquid nitrogen. Additionally, plasma and urine samples were obtained at scheduled intervals and frozen until analysis.

[2] = pharmacokinetics of topically applied 4-hydroxy tamoxifen gel in healthy premenopausal women; type: in vivo, human; details: last administration, day 25 of second cycle; for t1/2: range
Method: Each participant applied the gel daily for the duration of two menstrual cycles.
At the end of a menstrual cycle, each patient received a single dose, after which serial blood samples were collected at 0, 0.5, 1, 1.5, 2, 3, 4, 6, 12, 18, 24, 36, 48, and 72 hours.
On the first day of the following menstruation, treatment, which consisted of daily application of the gel over two menstrual cycles, began. Blood samples were collected 24 hours following the morning application of gel on days 7, 20 and 25 of the first and second cycles. On the last day of administration, day 25 of the second menstrual cycle, serial blood samples were collected prior to application and at 0.5, 1, 1.5, 2, 3, 4, 6, 12, 18, 24, 36, 48, and 72 hours after application of the gel.

[3] = human, in vivo
Method: as §1

[4] = topical application
estrone sulphatase = target: T1, estrone sulphatase (Homo sapiens, UniProt P08842); details: mammary cancer cell lines; cited from earlier work
T1 construct: estrone sulphatase activity in mammary cancer cell lines; endogenous in cells
T1 sequence (P08842 22-583): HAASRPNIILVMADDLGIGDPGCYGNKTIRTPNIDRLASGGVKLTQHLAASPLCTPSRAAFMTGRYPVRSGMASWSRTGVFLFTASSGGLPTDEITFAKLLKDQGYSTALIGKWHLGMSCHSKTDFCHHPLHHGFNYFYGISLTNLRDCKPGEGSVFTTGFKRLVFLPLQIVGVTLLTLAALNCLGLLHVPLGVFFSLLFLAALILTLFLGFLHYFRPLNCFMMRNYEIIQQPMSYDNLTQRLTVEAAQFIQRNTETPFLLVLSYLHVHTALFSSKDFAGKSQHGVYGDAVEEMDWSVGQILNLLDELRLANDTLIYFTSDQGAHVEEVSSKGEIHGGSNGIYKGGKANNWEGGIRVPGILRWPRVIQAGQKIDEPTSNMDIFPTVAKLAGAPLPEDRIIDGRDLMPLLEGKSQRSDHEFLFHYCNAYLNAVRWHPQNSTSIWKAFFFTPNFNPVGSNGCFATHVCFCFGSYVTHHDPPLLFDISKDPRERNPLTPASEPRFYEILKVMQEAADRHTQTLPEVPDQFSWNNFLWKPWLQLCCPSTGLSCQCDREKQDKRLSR

[5] = cited from earlier work
[6] = human, in vivo; cited from earlier work
[7] = tested on: p53(−) normal human mammary epithelial cells; details: cited from earlier work
keloid fibroblast = details: in vitro, cited from earlier work
TGF-β1 = details: cited from earlier work
[8] = Group 2 (0.5 mg/day gel) on the seventh day; Group 1 (oral tamoxifen 20 mg/day) on the fifth day; cited from earlier work
[9] = 12 hr after cutaneous Z-[^3H]-4-hydroxy tamoxifen to the affected breast
[10] = 24 hr after cutaneous Z-[^3H]-4-hydroxy tamoxifen to the affected breast
[11] = 36 hr after cutaneous Z-[^3H]-4-hydroxy tamoxifen to the affected breast
[12] = Day 4 after cutaneous Z-[^3H]-4-hydroxy tamoxifen to the affected breast
[13] = Day 7 after cutaneous Z-[^3H]-4-hydroxy tamoxifen to the affected breast

percentage of isomer in breast tissue radioactivity ([1]; day 7 after cutaneous Z-[^3H]-4-hydroxy tamoxifen): 33%
SMILES: CC/C(=C(/c1ccc(O)cc1)c1ccc(OCCN(C)C)cc1)c1ccccc1 (single isomer, unassigned) [E isomer]

percentage of isomer in breast tissue radioactivity [3]: 32%
SMILES: CC/C(=C(\c1ccc(O)cc1)c1ccc(OCCN(C)C)cc1)c1ccccc1 [Z-4-hydroxy tamoxifen]

time of plateau of radioactivity in blood ([1]; cutaneous [^3H]-labeled drug): 2 days
retention in the breast ([1]; cutaneous [^3H]-labeled drug, 80 μCi): shorter and far weaker
SMILES: CC/C(=C(\c1ccccc1)c1ccc(OCCN(C)C)cc1)c1ccccc1 [tamoxifen]
initiation of apoptosis [7]: initiates apoptosis
inhibitory effect on estrone sulphatase activity (estrone sulphatase): little or no effect
collagen production (keloid fibroblast; keloid fibroblasts): decreases collagen production
keloid fibroblast proliferation (keloid fibroblast): inhibits keloid fibroblast proliferation
TGF-β1 expression (TGF-β1): downregulating TGF-β1 expression
side effects reported by one person of the group [8]: hot flashes and mild vaginitis
rat liver carcinogenicity [5]: potent rat liver carcinogen

The remaining lines, values behind:

SMILES: CCC(=C(c1ccc(O)cc1)c1ccc(OCCN(C)C)cc1)c1ccccc1 [4-hydroxy tamoxifen, 1-[4-(2-N-dimethylaminoethoxy)phenyl]-1-(4-hydroxyphenyl)-2-phenylbut-1-ene]
AUC0-24 ([2]; 0.5 mg/day, 20 mg/100 g gel): 0.2563 ± 0.2053 ng·h/mL
Cav = AUC0-24/24 ([2]; 0.5 mg/day, 20 mg/100 g gel): 0.0107 ± 0.0085 ng/mL
Cmax ([2]; 0.5 mg/day, 20 mg/100 g gel): 0.017 ± 0.0085 ng/mL
tmax ([2]; 0.5 mg/day, 20 mg/100 g gel): 40 ± 81 h
AUC0-24 ([2]; 1 mg/day, 20 mg/100 g gel): 0.3009 ± 0.1908 ng·h/mL
Cav = AUC0-24/24 ([2]; 1 mg/day, 20 mg/100 g gel): 0.0125 ± 0.0079 ng/mL
Cmax ([2]; 1 mg/day, 20 mg/100 g gel): 0.021 ± 0.014 ng/mL
tmax ([2]; 1 mg/day, 20 mg/100 g gel): 24 ± 18 h
AUC0-24 ([2]; 1 mg/day, 57 mg/100 g gel): 0.619 ± 0.466 ng·h/mL
Cav = AUC0-24/24 ([2]; 1 mg/day, 57 mg/100 g gel): 0.0258 ± 0.0194 ng/mL
Cmax ([2]; 1 mg/day, 57 mg/100 g gel): 0.0351 ± 0.0224 ng/mL
tmax ([2]; 1 mg/day, 57 mg/100 g gel): 12.8 ± 14.9 h
t1/2 ([2]; 1 mg/day, 57 mg/100 g gel): (58-118) hr
AUC0-24 ([2]; 2 mg/day, 57 mg/100 g gel): 0.998 ± 0.653 ng·h/mL
Cav = AUC0-24/24 ([2]; 2 mg/day, 57 mg/100 g gel): 0.0416 ± 0.0272 ng/mL
Cmax ([2]; 2 mg/day, 57 mg/100 g gel): 0.0516 ± 0.0317 ng/mL
tmax ([2]; 2 mg/day, 57 mg/100 g gel): 11.8 ± 12.3 h
t1/2 ([2]; 2 mg/day, 57 mg/100 g gel): (49-101) hr
metabolism in intracellular sites of breast tissue [3]: remained unmetabolized except for limited isomerization from the Z to the E form
metabolites in the urine [3]: progressive increase of metabolites, mostly N-desmethyl-4-hydroxy tamoxifen and bisphenol
radioactivity administered that showed in the blood [3]: 0.5%
share of radioactivity in blood [3]: 68%
subcellular distribution in breast tissue [3]: concentrated predominantly in the cytosolic and nuclear fractions of breast tissue
time of plateau of radioactivity in blood [3]: 4 to 6 days
systemic effects [4]: no detectable laboratory or clinical evidence of systemic effects
inhibitory effect on estrone sulphatase activity (estrone sulphatase): significant inhibitory effect
rat liver carcinogenicity ([5]; in vivo): not
radioactivity in excised tissue and normal breast tissue surrounding the tumor [6]: contained radioactivity

SMILES: CC(C)(c1ccc(O)cc1)c1ccc(O)cc1 [Bisphenol]
% Metabolites in Breast Tissue [1, 9]: 1%
share of radioactivity in blood [1]: 11%
% Metabolites in Breast Tissue [1, 10]: 2%
% Metabolites in Breast Tissue [1, 11]: 3%
% Metabolites in Breast Tissue [1, 12]: 8%
% Metabolites in Breast Tissue [1, 13]: 8%

SMILES: CC/C(=C(\c1ccc(O)cc1)c1ccc(OCCNC)cc1)c1ccccc1 [N-Desmethyl-4-Hydroxy Tamoxifen]
% Metabolites in Breast Tissue [1, 9]: 2%
share of radioactivity in blood [1]: 18%
% Metabolites in Breast Tissue [1, 10]: 4%
% Metabolites in Breast Tissue [1, 11]: 14%
% Metabolites in Breast Tissue [1, 12]: 20%
% Metabolites in Breast Tissue [1, 13]: 16%
